# Results as given in patent publication US9174965B2, “Pyrimidinylpiperidinyloxypyridone analogues as GPR119 modulators” (BRISTOL-MYERS SQUIBB COMPANY, priority 2012, dated 2015).
# Legend:
# [1] = in vitro; settings: human, microsomes, pH 7.4
# Protocol: (§1) Metabolic Stability in Liver Microsomes Test
# (§2) The test compound was received as a 3.5 mM stock solution in 100 percent dimethyl sulfoxide (“DMSO”, Sigma Aldritch). The compound solution was diluted to create a 50 μM acetonitrile (“ACN”, Sigma Aldritch) solution containing 1.4% DMSO, which is then used as a 100-fold stock for incubation with microsomes. The test compound, β-nicotinamide adenine dinucleotide phosphate (“NADPH”, AppliChem Inc.) and liver microsome solutions are combined for incubation in three steps:
# (§3) 1) 450 μl of liver microsome suspension, protein concentration of 1.1 mg/ml in 100 mM sodium (+)/phosphate (“NaPi”, pH 7.4, Sigma Aldritch) buffer, 5 mM magnesium chloride (“MgCl2, Sigma Aldritch) buffer, is pre-warmed at 37° C.;
# (§4) 2) 5 μl of 50 μM test compound (98.6% ACN, 1.4% DMSO) is added to the same tube and pre-incubated at 37° C. for 5 minutes; and
# (§5) 3) The reaction is initiated by the addition of 50 μl of pre-warmed 10 mM NADPH solution in 100 mM NaPi, pH 7.4.
# (§6) Reaction components are mixed well and then 65 μl are immediately transferred into 130 μl quench/stop solution (zero-time point, T0). The reactions are incubated at 37° C. for 5, 10, 15, 30 and 45 minutes and at each time-point a 65 μl aliquot is transferred into 130 μl of quench solution. ACN containing Internal Standard (100 ng/ml), is used as the quench solution to terminate metabolic reactions. The quenched mixtures are centrifuged at 1500 rpm (˜500×g) in an Allegra X-12 centrifuge, SX4750 rotor (Beckman Coulter Inc., Fullerton, Calif.) for fifteen minutes to pellet denatured microsomes. A volume of 90 μl of supernatant extract, containing the mixture of parent compound and its metabolites, is then transferred to a separate 96-well plate for LC/MS-MS analysis to determine the percent of parent compound that is remaining in the mixture. Peak integration is performed on all samples using the Hepatic Clearance Calculator of QuickCalc by Gubbs, Inc. The percent remaining calculation is performed by comparing the LC-MS/MS peak areas from the samples at each time point to those from the T0 samples for each compound. T1/2 values are calculated from linear regression of the LN (% Remaining) over time, and the slope of that regression (Kel) is used to calculate T1/2, using the following equation: T1/2=−0.693/Kel.
# [2] = Aqueous solubility assay; type: physicochemical; settings: aqueous buffer, thermodynamic from solid; pH 6.5 phosphate buffer, room temperature, 18-24 h
# Protocol: Approximately 0.75 mg of accurately weighed test compound was added to 1 mL of a pH 6.5 phosphate buffer (50 mM Potassium Phosphate Buffer) to make solutions with a nominal targeted concentration of 1 mM. The vial was then rotated on an orbital shaker at room temperature for 18-24 h. After equilibration time had been met, the test solution was centrifuge filtered through a 0.45 um membrane (Millipore Ultrafree Centrifugal Filters, Durapore PVDF 0.45 um). The filtrate was then analyzed by an Agilent HP1100 HPLC/UV at multiple wavelengths using diode array detection (e.g. 210, 230, 254 and 280 nm) against a previously generated calibration curve to determine compound concentration.
# Find below in Table 9 data for compared compounds (See WO 2011/127106 A1).
# [3] = system: male C57BL/6J mice; test: Mouse oral glucose tolerance test; type: in vivo; settings: for Glucose Lowering: at the minimally efficacious dose, plasma glucose AUC in oGTT; for Minimally efficacious Dose: oGTT in C57BL/6J mice
# Protocol: Mouse Oral Glucose Tolerance Test
# Twenty four (24) male C57BL/6J mice (8-10 weeks old, average weight 28 g) were randomized into 4 groups (1 mouse/cage) of 6 mice per group based on fed plasma glucose and body weight. Prior to initiating the study, mice were fasted overnight and the next morning they were weighed and placed in the experimental lab. After 30 min in the environment, the mice were bled via tail tip at −60 min and immediately given their first oral administration of vehicle (40% PEG400, 10% Cremophor EL, 50% water) or compound solutions (5 ml/kg). At time 0 the mice were bled and given 50% glucose (2 g/kg) to initiate the oral glucose tolerance test (oGTT). The mice were bled 30, 60 and 120 min after the glucose load. Blood samples were drawn into potassium EDTA, placed on ice during the study and subsequently centrifuged for 10 min at 3000 rpm at 4° C. Plasma samples were diluted 11-fold for glucose analysis in the COBAS MIRA® System (Roche Diagnostics). Area under the curve was calculated from the plasma glucose time course data using the trapezoid rule with fasting plasma glucose as the baseline (GraphPad Prism Software). The statistical significance of the changes in the glucose AUCs resulting from the different treatments was determined by one-way ANOVA followed by Dunnett's test using the vehicle group as the control (JMP software, release 5.1.2).
# Find below in Table 7 data for compared compounds (See WO 2009/012275 A1).
# [4] = Metabolic stability in liver microsomes test; settings: human, pH 7.4
# Protocol: as §1, §2, §3, §4, §5, §6
half-life at 0.5 µM [1] [min],solubility [2] [µg/mL],half-life at 0.5 µM [4] [min],Structure (SMILES),Glucose Lowering [3] [%],Minimally efficacious Dose [3] [mg/kg]
101,7,–,"Cc1nc(-n2ccc(OC3CCN(c4ncc(Cl)cn4)CC3)cc2=O)ccc1N1CCC(O)C1=O (centres unmarked) [Example 6, 4-((1-(5-chloropyrimidin-2-yl)piperidin-4-yl)oxy)-5′-(3-hydroxy-2-oxopyrrolidin-1-yl)-6′-methyl-2H-[1,2′-bipyridin]-2-one]",–,–
–,1,120,"CCCc1cnc(N2CCC(Oc3cc(=O)n(-c4ccc(N5CCC(O)C5=O)c(C)n4)cc3Cl)CC2)nc1 (centres unmarked) [Example 2, 5-chloro-5′-(3-hydroxy-2-oxopyrrolidin-1-yl)-6′-methyl-4-((1-(5-propylpyrimidin-2-yl)piperidin-4-yl)oxy)-2H-[1,2′-bipyridin]-2-one]",−19,0.03
94,4,–,"Cc1nc(-n2cc(Cl)c(OC3CCN(c4ncc(Cl)cn4)CC3)cc2=O)ccc1N1CCC(O)C1=O (centres unmarked) [Example 1, 5-chloro-4-((1-(5-chloropyrimidin-2-yl)piperidin-4-yl)oxy)-5′-(3-hydroxy-2-oxopyrrolidin-1-yl)-6′-methyl-2H-[1,2′-bipyridin]-2-one]",−36,0.03
76,3,–,"CCCc1cnc(N2CCC(Oc3ccn(-c4ccc(N5CCC(O)C5=O)c(C)n4)c(=O)c3)CC2)nc1 (centres unmarked) [Example 5, 5′-(3-hydroxy-2-oxopyrrolidin-1-yl)-6′-methyl-4-((1-(5-propylpyrimidin-2-yl)piperidin-4-yl)oxy)-2H-[1,2′-bipyridin]-2-one]",−21,0.1
